Values quoted from earlier work in patent publication US20120087953A1, “PHARMACEUTICAL COMPOSITIONS OF ACTIVE PHARMACEUTICAL INGREDIENT COMPRISING SULPHONYLUREA MOIETY WITH EXCELLENT DISSOLUTION PROPERTIES” (LEK PHARMACEUTICALS D.D., priority 2009, published 2012).

Settings: acidic medium, 37° C.

Question: Which solubility does the source give for `CCC1=C(C)CN(C(=O)NCCc2ccc(S(=O)(=O)NC(=O)N[C@H]3CC[C@H](C)CC3)cc2)C1=O` [glimepiride] here?
Answer: less than 0.001 mg/mL
